# Experimental data taken from the METLIN SMRT retention time set (Domingo-Almenara et al. 2019).
# Assay: gradient 5% acetonitrile 3 min, to 50% in 2 min, to 85% in 15 min, held 3 min, 100 µL/min
# Details: column: Zorbax Extend-C18 2.1 x 50 mm; eluents: water / acetonitrile, 0.1% formic acid
# Outline: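 Values are retention times taken from adduct peaks that software picked and an analyst inspected. The pure standards were run as mixtures of ~100 molecules on HPLC linked to a quadrupole time-of-flight mass spectrometer, in positive and negative ionization mode. A Zorbax Extend-C18 column (2.1 × 50 mm, 1.8 μm) was used at 100 μL/min with water and acetonitrile, each including 0.1% formic acid.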
row,SMILES,RP-LC retention time [s]
1,Cc1cccc(OCc2nc(CCN(C)C(=O)NC3CCCCC3)no2)c1,938
2,CCCCN1C(=O)C(C)(C(=O)NCc2ccc(F)cc2)Oc2cccnc21 (configuration not stated),984
3,COc1ccccc1NC(=O)Cn1nc2c(N(C)C3CCCCC3)nccn2c1=O,778
4,COc1cccc(-n2ccnc(NC(=O)Nc3cccc(F)c3)c2=O)c1,934
5,NCC(=O)Nc1ccc(Cl)cc1C(=O)c1ccc[nH]1,665
6,CSc1ccc(-c2nc3cccc(C)n3c2Nc2ccc(Cl)cc2)cc1,788
7,CCCC(=O)Nc1cc2c(cc1N1CCC(C)CC1)n(C)c(=O)c(=O)n2C,820
8,O=c1[nH]c2ccc(NCc3ccc(F)cc3)cc2[nH]1,580
9,CN(CC1CCOCC1)C(=O)Nc1ccccc1Cl,763
10,COc1cccc(-n2c(=O)c(C(=O)NCc3cccs3)c(O)c3cccnc32)c1,1170
11,O=C(Nc1ccc2c(c1)OCCO2)NC1CCN(c2ccc(F)cc2)C1=O (configuration not stated),762
12,COCC(=O)N(CC(=O)N1CCc2sccc2C1COc1ccccc1F)CC(C)C (configuration not stated),900
13,COc1ccc(OC)c(S(=O)(=O)Cc2nc(-c3ccc(Cl)cc3)no2)c1,1030
14,CCOc1ccc(-c2ccc(=O)n(Cc3nc(-c4ccc(C)c(C)c4)no3)n2)cc1,576
15,O=C(Nc1ccccc1)N1CC(c2nc(CCOCC3CC3)no2)C1,792
16,N[C@H]1C[C@@H]1c1ccccc1,578
17,Cc1sc2ccn(C)c(=O)c2c1C(=O)NCc1cccc(Cl)c1,817
18,COc1ccc(-c2nnc(Cc3nc(-c4ccccc4)no3)o2)cc1OC,949
19,CCCCn1c(=O)c2ccccc2n(Cc2nc(-c3ccc(F)cc3)no2)c1=O,1170
20,CCc1nc2oc3cc(OC)ccc3c(=O)c2c(=O)n1-c1ccc(C)cc1,809
21,Cc1ccc(NS(=O)(=O)c2cc(-c3nc(C)cs3)sc2C)c(C)c1,1090
22,CCNC(=O)CC1=C2CCCCC2N(C(C)C)C1=O (configuration not stated),671
23,COC(=O)C(C)N1CN(c2ccc(C)cc2)c2ncccc2S1(=O)=O (configuration not stated),918

row,SMILES,RP-LC retention time [s]
1,CCCn1cc(C(=O)NCc2ccc(N(C)C)cc2)c2cccnc21,630
2,CCOc1ccc(CCNC(=O)c2ccc(-n3cnc(NC(=O)C4CC4)c3)cc2)cc1OCC,748
3,Cc1oc(-c2ccccc2)nc1Cc1noc(-c2ccccc2F)n1,675
4,Cc1ccc(-c2ccc(N3CCCC(C(=O)NCCC4=CCCCC4)C3)nn2)cc1C (configuration not stated),888
5,COc1ccc(CNS(=O)(=O)c2ccccc2-c2nc(-c3ccc(F)cc3)no2)cc1,1160
6,COCCCNc1c(-c2cccc(F)c2)nc2sc(C(N)=O)c(C)n12,741
7,CC(C)OCCCNC(=O)C(C)n1c2ccccc2c2cnn(C)c(=O)c21 (configuration not stated),803
8,CCn1nc(N2CCCC(N)C2)ccc1=O (configuration not stated),497
9,C[C@@H]1CCO[C@H]2Cn3cc(C(=O)NCc4ccc(F)cc4F)c(=O)c(O)c3C(=O)N12,808
10,CCOC(=O)Nc1nc2c(s1)CN(C(=O)Nc1ccc3c(c1)OCO3)CC2,670
11,CS/C(=C\c1ccc(C(=O)c2ccc(C)cc2)n1C)S(C)=O (configuration not stated),1120
12,O=C(CN1C(=O)c2cccnc2Sc2ccccc21)NCCc1c[nH]c2ccccc12,773
13,Cc1cc(C)c2c(n1)SCC(=O)N2CCCC(=O)NCCCN1CC(C)CC(C)C1 (configuration not stated),595
14,CCc1onc(C)c1C1CCCN1C(=O)c1c(Br)cnn1C (configuration not stated),728
15,CCOC(=O)c1cc(C2CC2)nc2c1c(=O)n(Cc1cccc(F)c1)c(=O)n2C,1160
16,COC(=O)c1cnn(C(=O)c2ccc(OC)cc2)c1N,829
17,CCc1onc(C)c1C1CCCN1C(=O)c1c(F)cccc1F (configuration not stated),788
18,CC(C)Cn1c(-c2ccccc2)nc2ccccc21,675
19,Cc1nc(N2CCOCC2)c2c(C(=O)N3CCCc4ccccc43)c(C)oc2n1,853
20,CCOc1ccc(-c2noc(Cn3c(=O)n(C(C)CC)c(=O)c4ccccc43)n2)cc1OC (configuration not stated),1140
21,CCn1nccc1-c1cccc(-c2noc(C3CC(=O)N(c4ccc(C)c(C)c4)C3)n2)c1 (configuration not stated),1080
22,Cc1ccc(C)c(NC(=O)N2CCc3nc(-c4ccc(F)cc4)ncc3C2)c1,987
23,Cc1ccc(-c2nc(-c3ccc4c(c3)oc(=O)n4C(C)C)no2)c(C)c1,761

# Continued, values first:
row,RP-LC retention time [s],SMILES
1,682,Cc1[nH]c2ccccc2c1C(=O)C(c1ccccc1)N1CCN(c2ncccn2)CC1 (configuration not stated)
2,753,Cn1cc(-c2cc3n(n2)CCCN3C(=O)CCC(=O)N2CCCCC2)c2ccccc21
3,930,O=C(C1CCN(c2ncnc3c2oc2ccccc23)CC1)N1CCN(c2cccc(Cl)c2)CC1
4,578,Cn1c(=O)c2cc(C(=O)N3CCN(c4ccccn4)CC3)sc2n(C)c1=O
5,805,Cc1[nH]c2ccccc2c1C(=O)C(=O)N(C)Cc1ccccc1
6,605,Cc1cccc(CN2CC(n3cc(COc4ccc(F)cc4)nn3)C2)c1
7,625,Cc1ccc(C(=O)N2CCc3sc(C(=O)N4CCN(C(C)C)CC4)cc3C2)cc1
8,689,O=C(Nc1ccc(N2CCN(c3ccccc3)C2=O)nc1)c1cccnc1
9,798,O=C(Cc1cccc(F)c1)N1CCN(c2cc(-c3cccs3)[nH]n2)CC1
10,695,Cc1ccc(CNC(=O)CN2CCN(C(=O)Nc3ccc(F)cc3)CC2=O)o1
11,650,O=C(c1ccc2ccccc2n1)N1CCN(C(=O)N2C[C@H]3C[C@H](C2)[C@H]2CCCC(=O)N2C3)CC1
12,882,O=C(NC1CCCCCC1)C1CCN(Cc2cc3ccccc3n2Cc2cccc(Cl)c2)CC1
13,648,O=C(c1cccc(F)c1)N1CCN(c2cnn3c(C4CC4)nnc3c2)CC1
14,909,CCc1nn2c(CNC(=O)c3cccc(F)c3)c(-c3ccccc3)nc2s1
15,858,O=C(Nc1nc(-c2ccccc2Cl)cs1)c1cccnc1
16,830,O=C(NCc1cc(F)ccc1F)c1ccc2c(c1)nc1n2CCN(C2CCCCC2)C1=O
17,837,Cc1cc2c(c(=O)n(-c3ccccc3)c(=O)n2CC(=O)Nc2cccc(F)c2)n1C
18,747,O=S(=O)(Nc1ccc(Cn2cncn2)cc1)c1ccc(Br)cc1
19,619,O=C(CC1CCN(C(=O)c2ccc3oc(C4CC4)nc3c2)CC1)N1CCOCC1
20,921,O=C(Cc1ccc(Cl)cc1)N1CCN(C(=O)c2nnn3c2COC(c2ccccc2)C3)CC1 (configuration not stated)
21,855,CC1CCCCN1S(=O)(=O)c1ccc2c(c1)CCC(=O)N2CC(=O)NCc1ccc(F)cc1 (configuration not stated)
